Reference: patent US7897602B2, “Indolinone compounds as kinase inhibitors” (Development Center for Biotechnology, priority 2009, dated 2011)

How the values were obtained:
Format in all cases: biochemical
VEGFR2 kinase = biological target: T1, VEGFR2 kinase (Homo sapiens, UniProt P35968); assay: VEGFR2 kinase assay (33P incorporation into Poly(Glu-Tyr)); conditions: 500 nM test compound; read-out: Inhibition at 500 nM (%) VEGFr-2
T1 construct: recombinant N-terminal 6×His-tagged VEGFR2 kinase domain construct expressed by baculovirus; 6xHis (N); made in house
Summary of the method: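 Recombinant baculovirus-expressed N-terminal His6-tagged VEGFR2 kinase domain (6.25 ng) phosphorylated poly(Glu-Tyr) 4:1 with 100 μM ATP plus [33P]-γ-ATP in MOPS pH 7.0, 30 °C, 30 min. Test compound was at 500 nM (4% DMSO). Filter-retained radioactivity relative to DMSO control gave % inhibition.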

PDGFR-β kinase = biological target: T2, PDGFR-β kinase (Homo sapiens, UniProt P09619); assay: PDGFR-β kinase assay (33P incorporation into Poly(Glu-Tyr)); conditions: 500 nM test compound
T2 construct: recombinant N-terminal 6×His-tagged PDGFR-β kinase domain construct expressed by baculovirus; 6xHis (N); made in house
Summary of the method: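 His-tagged PDGFR-β kinase domain (55 ng) with Poly(Glu-Tyr) 4:1, 30 μM ATP plus [33P]-γ-ATP, pH 7.0 MnCl2 buffer, and 500 nM compound for 30 min at 30° C. Filter-bound radioactivity counted; inhibition computed relative to DMSO control.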

Flt3 kinase = biological target: T3, Flt3 kinase (Homo sapiens, UniProt P36888); assay: Flt3 kinase assay (33P incorporation into Poly(Glu-Tyr)); conditions: 100 nM test compound; read-out: Inhibition at 100 nM (%) Flt-3
T3 construct: recombinant N-terminal 6×His-tagged Flt3 kinase domain construct expressed from baculovirus; 6xHis (N); made in house
T3 sequence (P36888 610-943 limits assumed): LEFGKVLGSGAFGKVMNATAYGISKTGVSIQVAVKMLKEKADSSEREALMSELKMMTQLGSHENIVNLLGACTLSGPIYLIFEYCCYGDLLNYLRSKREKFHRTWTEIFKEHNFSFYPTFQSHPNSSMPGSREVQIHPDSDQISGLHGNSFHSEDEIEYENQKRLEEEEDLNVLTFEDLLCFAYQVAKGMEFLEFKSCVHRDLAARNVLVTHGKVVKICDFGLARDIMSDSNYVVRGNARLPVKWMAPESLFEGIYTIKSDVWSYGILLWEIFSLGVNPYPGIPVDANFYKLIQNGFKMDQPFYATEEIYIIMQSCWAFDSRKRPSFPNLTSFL
Summary of the method: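 Baculovirus-expressed His-tagged Flt3 kinase domain (5 ng) with Poly(Glu-Tyr) 4:1 substrate, 100 μM ATP plus [33P]-γ-ATP, in MOPS pH 7.0 buffer, 30 min at 30 °C. Compound tested at a single 100 nM concentration; filter-bound radioactivity counted and percent inhibition calculated relative to DMSO control.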

T1 sequence (P35968 834-1162 limits assumed): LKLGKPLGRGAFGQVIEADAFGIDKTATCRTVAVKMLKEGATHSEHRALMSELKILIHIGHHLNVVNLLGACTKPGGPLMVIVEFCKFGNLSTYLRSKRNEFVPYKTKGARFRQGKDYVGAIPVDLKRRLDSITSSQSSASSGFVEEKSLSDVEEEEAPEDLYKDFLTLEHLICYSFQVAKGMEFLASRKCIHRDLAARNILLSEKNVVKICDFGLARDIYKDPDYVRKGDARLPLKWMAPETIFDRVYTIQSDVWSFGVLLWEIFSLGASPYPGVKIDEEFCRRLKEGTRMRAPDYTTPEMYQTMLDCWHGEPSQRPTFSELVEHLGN
T2 sequence (P09619 600-962 limits assumed): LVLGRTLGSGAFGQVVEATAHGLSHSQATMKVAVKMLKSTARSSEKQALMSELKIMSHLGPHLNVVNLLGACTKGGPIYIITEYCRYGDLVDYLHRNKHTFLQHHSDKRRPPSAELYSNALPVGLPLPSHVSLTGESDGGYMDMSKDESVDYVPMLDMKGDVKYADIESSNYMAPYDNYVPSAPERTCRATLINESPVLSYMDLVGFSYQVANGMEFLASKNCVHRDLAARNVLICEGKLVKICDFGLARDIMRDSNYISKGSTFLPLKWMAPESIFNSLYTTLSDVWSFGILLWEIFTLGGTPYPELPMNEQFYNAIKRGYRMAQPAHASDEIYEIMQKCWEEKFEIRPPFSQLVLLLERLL

CCOC(=O)CCc1c(/C=C2\C(=O)Nc3cc(-c4ccc(O)c(OC)c4)ccc32)[nH]c2c1C(=O)CCC2 [DCB-70081, (Z)-6-(4-hydroxy-3-methoxyphenyl)-3-((3-(3-ethoxy-3-oxopropyl)-4-oxo-4,5,6,7-tetrahydro-1H-indol-2-yl)methylene)indolin-2-one] showed an inhibition at 0.5 µM (VEGFR2 kinase) of 80%, an inhibition at 0.5 µM (PDGFR-β kinase) of 25.2% and an inhibition at 0.1 µM (Flt3 kinase) of 30%.

Work on CCOC(=O)CCc1c(/C=C2\C(=O)Nc3ccc(NS(=O)(=O)c4ccc(F)cc4)cc32)[nH]c2c1C(=O)CCC2 [DCB-70144, (Z)-ethyl 3-(2-((5-(4-fluorophenylsulfonamido)-2-oxoindolin-3-ylidene)methyl)-4-oxo-4,5,6,7-tetrahydro-1H-indol-3-yl)propanoate] yielded an inhibition at 0.5 µM (VEGFR2 kinase) of 40.8%, an inhibition at 0.5 µM (PDGFR-β kinase) of 2.4% and an inhibition at 0.1 µM (Flt3 kinase) of 38.7%.

CCOC(=O)CCc1c(/C=C2\C(=O)Nc3ccc(NS(=O)(=O)c4ccccc4)cc32)[nH]c2c1C(=O)CCC2 [DCB-70102, (Z)-5-phenylsulfonamido-3-((3-(3-ethoxy-3-oxopropyl)-4-oxo-4,5,6,7-tetrahydro-1H-indol-2-yl)methylene)indolin-2-one] was tested, and the inhibition at 0.5 µM (VEGFR2 kinase) was 68%, the inhibition at 0.5 µM (PDGFR-β kinase) was 32.8% and the inhibition at 0.1 µM (Flt3 kinase) was 75.9%.

Work on CCOC(=O)CCc1c(/C=C2\C(=O)Nc3ccccc32)[nH]c2c1C(=O)CCC2 [DCB-70049, (Z)-3-((3-(3-ethoxy-3-oxopropyl)-4-oxo-4,5,6,7-tetrahydro-1H-indol-2-yl)methylene)indolin-2-one] yielded an inhibition at 0.5 µM (VEGFR2 kinase) of 79.7%, an inhibition at 0.5 µM (PDGFR-β kinase) of 54% and an inhibition at 0.1 µM (Flt3 kinase) of 90.2%.

CCOC(=O)CCc1c(/C=C2\C(=O)Nc3ccc(-c4ccc(F)cc4)cc32)[nH]c2c1C(=O)CCC2 [DCB-70108, (Z)-5-(4-fluorophenyl)-3-((3-(3-ethoxy-3-oxopropyl)-4-oxo-4,5,6,7-tetrahydro-1H-indol-2-yl)methylene)indolin-2-one] showed an inhibition at 0.5 µM (VEGFR2 kinase) of 14.1%, an inhibition at 0.5 µM (PDGFR-β kinase) of 4% and an inhibition at 0.1 µM (Flt3 kinase) of 11.8%.

For O=C1Nc2ccc(F)cc2/C1=C/c1[nH]c2c(c1CCC(=O)N1CCOCC1)C(=O)CCC2 [DCB-70125, (Z)-5-fluoro-3-((3-(3-morpholino-3-oxopropyl)-4-oxo-4,5,6,7-tetrahydro-1H-indol-2-yl)methylene)indolin-2-one], the inhibition at 0.5 µM (VEGFR2 kinase) was 83.4%, the inhibition at 0.5 µM (PDGFR-β kinase) was 78.2% and the inhibition at 0.1 µM (Flt3 kinase) was 94.6%.

Molecule O=C(O)CCc1c(/C=C2\C(=O)Nc3ccc([N+](=O)[O-])cc32)[nH]c2c1C(=O)CCC2 [DCB-70063, (Z)-5-nitro-3-((3-carboxyethyl-4-oxo-4,5,6,7-tetrahydro-1H-indol-2-yl)methylene)indolin-2-one] has an inhibition at 0.5 µM (VEGFR2 kinase) of 82.7%, an inhibition at 0.5 µM (PDGFR-β kinase) of 79.7% and an inhibition at 0.1 µM (Flt3 kinase) of 74.7%.

Molecule O=C(O)CCc1c(/C=C2\C(=O)Nc3ccc(NCc4ccccc4)cc32)[nH]c2c1C(=O)CCC2 [DCB-70132, (Z)-3-(2-((5-(benzylamino)-2-oxoindolin-3-ylidene)methyl)-4-oxo-4,5,6,7-tetrahydro-1H-indol-3-yl)propanoic acid] has an inhibition at 0.5 µM (VEGFR2 kinase) of 15.8%, an inhibition at 0.5 µM (PDGFR-β kinase) of 29.3% and an inhibition at 0.1 µM (Flt3 kinase) of 3.7%.

CCOC(=O)CCc1c(/C=C2\C(=O)Nc3ccc(Br)cc32)[nH]c2c1C(=O)CCC2 [DCB-70056, (Z)-5-bromo-3-((3-(3-ethoxy-3-oxopropyl)-4-oxo-4,5,6,7-tetrahydro-1H-indol-2-yl)methylene)indolin-2-one] was tested, and the inhibition at 0.5 µM (VEGFR2 kinase) was 89.6%, the inhibition at 0.5 µM (PDGFR-β kinase) was 84.1% and the inhibition at 0.1 µM (Flt3 kinase) was 99.2%.

In the case of CN(C)S(=O)(=O)c1ccc2c(c1)/C(=C/c1[nH]c3c(c1CCC(=O)O)C(=O)CCC3)C(=O)N2 [DCB-70121, (Z)-5-(N,N-dimethylsulfamoyl)-3-((3-carboxyethyl-4-oxo-4,5,6,7-tetrahydro-1H-indol-2-yl)methylene)indolin-2-one], the inhibition at 0.5 µM (VEGFR2 kinase) is reported as 19.6%, the inhibition at 0.5 µM (PDGFR-β kinase) is reported as 16.9% and the inhibition at 0.1 µM (Flt3 kinase) is reported as 14.6%.

With O=C(O)CCc1c(/C=C2\C(=O)Nc3cc(F)ccc32)[nH]c2c1C(=O)CCC2 [DCB-70123, (Z)-6-fluoro-3-((3-carboxyethyl-4-oxo-4,5,6,7-tetrahydro-1H-indol-2-yl)methylene)indolin-2-one] the inhibition at 0.5 µM (VEGFR2 kinase) was 90.8%, the inhibition at 0.5 µM (PDGFR-β kinase) was 67.2% and the inhibition at 0.1 µM (Flt3 kinase) was 61.1%.

CCOC(=O)CCc1c(/C=C2\C(=O)Nc3ccc(NCc4ccccc4)cc32)[nH]c2c1C(=O)CCC2 [DCB-70131, (Z)-ethyl 3-(2-((5-(benzylamino)-2-oxoindolin-3-ylidene)methyl)-4-oxo-4,5,6,7-tetrahydro-1H-indol-3-yl)propanoate] was tested, and the inhibition at 0.5 µM (VEGFR2 kinase) was 65.9%, the inhibition at 0.5 µM (PDGFR-β kinase) was 40.8% and the inhibition at 0.1 µM (Flt3 kinase) was 85.1%.

In the case of O=C(O)CCc1c(/C=C2\C(=O)Nc3ccc(-c4ccc(F)cc4)cc32)[nH]c2c1C(=O)CCC2 [DCB-70109, (Z)-5-(4-fluorophenyl)-3-((3-carboxyethyl-4-oxo-4,5,6,7-tetrahydro-1H-indol-2-yl)methylene)indolin-2-one], the inhibition at 0.5 µM (VEGFR2 kinase) is reported as 58.6%, the inhibition at 0.5 µM (PDGFR-β kinase) is reported as 22.6% and the inhibition at 0.1 µM (Flt3 kinase) is reported as 19.2%.

In the case of O=C(O)CCc1c(/C=C2\C(=O)Nc3cc(-c4cc5ccccc5s4)ccc32)[nH]c2c1C(=O)CCC2 [DCB-70080, (Z)-6-(benzo[b]thiophen-2-yl)-3-((3-carboxyethyl-4-oxo-4,5,6,7-tetrahydro-1H-indol-2-yl)methylene)indolin-2-one], the inhibition at 0.5 µM (VEGFR2 kinase) is reported as 76.9%, the inhibition at 0.5 µM (PDGFR-β kinase) is reported as 56.7% and the inhibition at 0.1 µM (Flt3 kinase) is reported as 7.4%.

For CCOC(=O)CCc1c(/C=C2\C(=O)Nc3ccc(NC(=O)c4ccccc4)cc32)[nH]c2c1C(=O)CCC2 [DCB-70096, (Z)-5-benazmido-3-((3-(3-ethoxy-3-oxopropyl)-4-oxo-4,5,6,7-tetrahydro-1H-indol-2-yl)methylene)indolin-2-one], the inhibition at 0.5 µM (VEGFR2 kinase) was 44.2%, the inhibition at 0.5 µM (PDGFR-β kinase) was 14.9% and the inhibition at 0.1 µM (Flt3 kinase) was 5.9%.

With CNS(=O)(=O)c1ccc2c(c1)/C(=C/c1[nH]c3c(c1CCC(=O)N1CCN(C)CC1)C(=O)CCC3)C(=O)N2 [DCB-70117] the inhibition at 0.5 µM (VEGFR2 kinase) was 43.3%, the inhibition at 0.5 µM (PDGFR-β kinase) was 8.9% and the inhibition at 0.1 µM (Flt3 kinase) was 48.3%.

Work on CCOC(=O)CCc1c(/C=C2\C(=O)Nc3ccc([N+](=O)[O-])cc32)[nH]c2c1C(=O)CCC2 [DCB-70062, (Z)-5-nitro-3-((3-(3-ethoxy-3-oxopropyl)-4-oxo-4,5,6,7-tetrahydro-1H-indol-2-yl)methylene)indolin-2-one] yielded an inhibition at 0.5 µM (VEGFR2 kinase) of 60.2%, an inhibition at 0.5 µM (PDGFR-β kinase) of 67.5% and an inhibition at 0.1 µM (Flt3 kinase) of 91.6%.

O=C(O)CCc1c(C=C2C(=S)Nc3ccccc32)[nH]c2c1C(=O)CCC2 [DCB-70084, 3-((3-carboxyethyl-4-oxo-4,5,6,7-tetrahydro-1H-indol-2-yl)methylene)indolin-2-thione] showed an inhibition at 0.5 µM (VEGFR2 kinase) of 13.4%, an inhibition at 0.5 µM (PDGFR-β kinase) of 6% and an inhibition at 0.1 µM (Flt3 kinase) of -2.6%.

For CCOC(=O)CCc1c(/C=C2\C(=O)Nc3ccc(NC(=O)Nc4ccccc4)cc32)[nH]c2c1C(=O)CCC2 [DCB-70134, (Z)-ethyl 3-(4-oxo-2-((2-oxo-5-(3-phenylureido)indolin-3-ylidene)methyl)-4,5,6,7-tetrahydro-1H-indol-3-yl)propanoate], the inhibition at 0.5 µM (VEGFR2 kinase) was 20.7%, the inhibition at 0.5 µM (PDGFR-β kinase) was 24% and the inhibition at 0.1 µM (Flt3 kinase) was 40.9%.

For CCOC(=O)CCc1c(/C=C2\C(=O)Nc3ccc(S(=O)(=O)NC)cc32)[nH]c2c1C(=O)CCC2 [DCB-70064, (Z)-5-(N-methylsulfamoyl)-3-((3-(3-ethoxy-3-oxopropyl)-4-oxo-4,5,6,7-tetrahydro-1H-indol-2-yl)methylene)indolin-2-one], the inhibition at 0.5 µM (VEGFR2 kinase) was 39%, the inhibition at 0.5 µM (PDGFR-β kinase) was 56.7% and the inhibition at 0.1 µM (Flt3 kinase) was 25.7%.

O=C(O)CCc1c(/C=C2\C(=O)Nc3ccc(NS(=O)(=O)c4ccccc4)cc32)[nH]c2c1C(=O)CCC2 [DCB-70103, (Z)-5-phenylsulfonamido-3-((3-carboxyethyl-4-oxo-4,5,6,7-tetrahydro-1H-indol-2-yl)methylene)indolin-2-one] showed an inhibition at 0.5 µM (VEGFR2 kinase) of 88.3%, an inhibition at 0.5 µM (PDGFR-β kinase) of 51% and an inhibition at 0.1 µM (Flt3 kinase) of 44.7%.

O=C(O)CCc1c(/C=C2\C(=O)Nc3ccccc32)[nH]c2c1C(=O)CCC2 [DCB-70052, (Z)-3-((3-carboxyethyl-4-oxo-4,5,6,7-tetrahydro-1H-indol-2-yl)methylene)indolin-2-one] showed an inhibition at 0.5 µM (VEGFR2 kinase) of 85%, an inhibition at 0.5 µM (PDGFR-β kinase) of 54.8% and an inhibition at 0.1 µM (Flt3 kinase) of 72.1%.

Molecule O=C(O)CCc1c(/C=C2\C(=O)Nc3cc(-c4cc(F)cc(F)c4)ccc32)[nH]c2c1C(=O)CCC2 [DCB-70101, (Z)-6-(3,5-difluorophenyl)-3-((3-carboxyethyl-4-oxo-4,5,6,7-tetrahydro-1H-indol-2-yl)methylene)indolin-2-one] has an inhibition at 0.5 µM (VEGFR2 kinase) of 73.8%, an inhibition at 0.5 µM (PDGFR-β kinase) of 70.5% and an inhibition at 0.1 µM (Flt3 kinase) of 8.5%.
